In one experiment the target is ALK (G1202R) (Homo sapiens (Human), UniProt Q9UM73, G1202R). As to the kind of experiment: Radio-tagged HotSpot kinase assay, ALK (G1202R). Type of experiment: biochemical. How it is done:
(§1) Inhibition of protein kinase activity by compounds was carried out on the Radio-tagged HotSpot kinase experimental platform of Reaction Biology Corporation. Fresh reaction solution (20 mM TIEPESpH 7.5, 10 mM MgCl2, 1 mM EGTA, 0.02% Brij35, 0.02 mg/ml BSA, 0.1 mM Na3VO4, 2 mM DTT, […]) containing corresponding substrates was prepared, cofactor and kinase to be tested were added into the above solution and mixed gently. Echo550 pipetting system was used to add the test compound DMSO solution to each well (the blank control group was added with the corresponding volume of DMSO), then 33P-ATP (with a final specific activity of 0.01 μCi/μL) was added to start the reaction. The reaction solution was incubated at room temperature for 120 minutes. Transferred the incubated reaction solution to P81 ion exchange chromatographic paper (Whatman #3698-915), eluted with […] phosphoric acid solution, and the amount of radioactive phosphorylated substrate remaining on the chromatographic paper was detected.

Experiment [1] relates to Ba/F3-CD74-ROS1-G2032R cells. Put plainly: In vivo efficacy study, subcutaneous Ba/F3-CD74-ROS1-G2032R tumor. More on the design: species or system BALB/c nude mice. As to conditions: 20 mg/kg P.O. BID × 2 weeks. How it is done:
Cell culture: Ba/F3-CD74-ROS1-G2032R cell line was cultured with 1640 medium (Biological Industries)+10% fetal bovine serum (BI)+1% double antibody (Penicillin Streptomycin solution, Corning, USA) at 37° C. with 5% CO2. Two passages were performed for one week. When the cell saturation was 80%-90% and the number reached the required level, the cells were collected, counted and inoculated.
Animals: BALB/c nude mice, female, 6-8 weeks of age, weighing 15-20 g. A total of 6 mice were required, provided by Beijing Vital River Laboratory Animal Technology Co., Ltd.
Tumor inoculation: 0.2 ml (2×10^6) Ba/F3-CD74-ROS1-G2032R cells (plus stromal gel, volume ratio 1:1) were inoculated subcutaneously on the right posterior dorsum of each mouse, and group dosing was started when the average tumor volume reached about 150-200 mm^3.
Experimental index: Tumor volume and body weight were measured twice a week. Tumor volume was measured by vernier calipers with the formula TV=0.5 a×b2, wherein a is the long diameter of the tumor and b is the short diameter of the tumor.

Another experiment addresses ALK (Homo sapiens (Human), UniProt Q9UM73). As to the kind of experiment: Radio-tagged HotSpot kinase assay, ALK. Format: biochemical. How it is done: as §1
A further experiment addresses TRKA (G677C) (Homo sapiens, UniProt P04629, G667C). Put plainly: Radio-tagged HotSpot kinase assay, TRKA (G677C). Type of experiment: biochemical. The procedure: as §1
The next experiment addresses ROS1 (Homo sapiens (Human), UniProt P08922). Put plainly: Radio-tagged HotSpot kinase assay, ROS1. Type of experiment: biochemical. How it is done: as §1
Another experiment addresses ROS1 (G2032R) (Homo sapiens (Human), UniProt P08922, G2032R). As to the kind of experiment: Radio-tagged HotSpot kinase assay, ROS1 (G2032R). Type of experiment: biochemical. The procedure:
as §1

For the next experiment, the target named is TRKA (Homo sapiens (Human), UniProt P04629). Put plainly: Radio-tagged HotSpot kinase assay, TRKA. Format: biochemical. The procedure:
as §1

For the next experiment, the system named is Ba/F3-TEL-ALK-G1202R. Put plainly: Inhibition of cell proliferation (CellTiter-Glo), Ba/F3-TEL-ALK-G1202R. The settings on record: 72 hours. Format: cell-based. How it is done: (§2) The experiment of inhibiting cell proliferation by compounds was carried out in Hefei Zhongkeprecedo Biomedical Technology Co., Ltd. The Ba/F3 engineered cell line stably transfected with different kinase genes was recovered with RPMI 1640 medium (Biological Industries, Israel)+10% fetal bovine serum (Biological Industries, Israel)+1% double antibody (Penicillin Streptomycin solution, Coring, USA) and cultivated two generations. The logarithmic growth phase cell suspension was taken, and 2000 cells/well were inoculated on 96-well white cell culture plate (Corning 3917, NY, USA) with a volume of 95 μL per well. 5 μL of 20×DMSO solution of the compound to be tested was added into the culture plate containing 95 μL of cell suspension. The blank control group was added with corresponding volume of DMSO, mixed well, and incubated in a 5% CO2 incubator at 37° C. for 72 hours. CellTiter-Glo was used to detect cell viability.

A further experiment concerns Ba/F3-CD74-ROS1-G2032R. As to the kind of experiment: Inhibition of cell proliferation (CellTiter-Glo), Ba/F3-CD74-ROS1-G2032R. The settings on record: 72 hours. Type of experiment: cell-based. The procedure: as §2
Another experiment has as its system Ba/F3-LMNA-NTRK1-G595R. As to the kind of experiment: Inhibition of cell proliferation (CellTiter-Glo), Ba/F3-LMNA-NTRK1-G595R. Format: cell-based. As to conditions: 72 hours. The procedure: as §2
Setting [2] is: read-out: TRKA (G677C) (IC50/nM).

Where two headings read alike, the source gives them in different places.

Sequence of ROS1 (P08922 28-2347): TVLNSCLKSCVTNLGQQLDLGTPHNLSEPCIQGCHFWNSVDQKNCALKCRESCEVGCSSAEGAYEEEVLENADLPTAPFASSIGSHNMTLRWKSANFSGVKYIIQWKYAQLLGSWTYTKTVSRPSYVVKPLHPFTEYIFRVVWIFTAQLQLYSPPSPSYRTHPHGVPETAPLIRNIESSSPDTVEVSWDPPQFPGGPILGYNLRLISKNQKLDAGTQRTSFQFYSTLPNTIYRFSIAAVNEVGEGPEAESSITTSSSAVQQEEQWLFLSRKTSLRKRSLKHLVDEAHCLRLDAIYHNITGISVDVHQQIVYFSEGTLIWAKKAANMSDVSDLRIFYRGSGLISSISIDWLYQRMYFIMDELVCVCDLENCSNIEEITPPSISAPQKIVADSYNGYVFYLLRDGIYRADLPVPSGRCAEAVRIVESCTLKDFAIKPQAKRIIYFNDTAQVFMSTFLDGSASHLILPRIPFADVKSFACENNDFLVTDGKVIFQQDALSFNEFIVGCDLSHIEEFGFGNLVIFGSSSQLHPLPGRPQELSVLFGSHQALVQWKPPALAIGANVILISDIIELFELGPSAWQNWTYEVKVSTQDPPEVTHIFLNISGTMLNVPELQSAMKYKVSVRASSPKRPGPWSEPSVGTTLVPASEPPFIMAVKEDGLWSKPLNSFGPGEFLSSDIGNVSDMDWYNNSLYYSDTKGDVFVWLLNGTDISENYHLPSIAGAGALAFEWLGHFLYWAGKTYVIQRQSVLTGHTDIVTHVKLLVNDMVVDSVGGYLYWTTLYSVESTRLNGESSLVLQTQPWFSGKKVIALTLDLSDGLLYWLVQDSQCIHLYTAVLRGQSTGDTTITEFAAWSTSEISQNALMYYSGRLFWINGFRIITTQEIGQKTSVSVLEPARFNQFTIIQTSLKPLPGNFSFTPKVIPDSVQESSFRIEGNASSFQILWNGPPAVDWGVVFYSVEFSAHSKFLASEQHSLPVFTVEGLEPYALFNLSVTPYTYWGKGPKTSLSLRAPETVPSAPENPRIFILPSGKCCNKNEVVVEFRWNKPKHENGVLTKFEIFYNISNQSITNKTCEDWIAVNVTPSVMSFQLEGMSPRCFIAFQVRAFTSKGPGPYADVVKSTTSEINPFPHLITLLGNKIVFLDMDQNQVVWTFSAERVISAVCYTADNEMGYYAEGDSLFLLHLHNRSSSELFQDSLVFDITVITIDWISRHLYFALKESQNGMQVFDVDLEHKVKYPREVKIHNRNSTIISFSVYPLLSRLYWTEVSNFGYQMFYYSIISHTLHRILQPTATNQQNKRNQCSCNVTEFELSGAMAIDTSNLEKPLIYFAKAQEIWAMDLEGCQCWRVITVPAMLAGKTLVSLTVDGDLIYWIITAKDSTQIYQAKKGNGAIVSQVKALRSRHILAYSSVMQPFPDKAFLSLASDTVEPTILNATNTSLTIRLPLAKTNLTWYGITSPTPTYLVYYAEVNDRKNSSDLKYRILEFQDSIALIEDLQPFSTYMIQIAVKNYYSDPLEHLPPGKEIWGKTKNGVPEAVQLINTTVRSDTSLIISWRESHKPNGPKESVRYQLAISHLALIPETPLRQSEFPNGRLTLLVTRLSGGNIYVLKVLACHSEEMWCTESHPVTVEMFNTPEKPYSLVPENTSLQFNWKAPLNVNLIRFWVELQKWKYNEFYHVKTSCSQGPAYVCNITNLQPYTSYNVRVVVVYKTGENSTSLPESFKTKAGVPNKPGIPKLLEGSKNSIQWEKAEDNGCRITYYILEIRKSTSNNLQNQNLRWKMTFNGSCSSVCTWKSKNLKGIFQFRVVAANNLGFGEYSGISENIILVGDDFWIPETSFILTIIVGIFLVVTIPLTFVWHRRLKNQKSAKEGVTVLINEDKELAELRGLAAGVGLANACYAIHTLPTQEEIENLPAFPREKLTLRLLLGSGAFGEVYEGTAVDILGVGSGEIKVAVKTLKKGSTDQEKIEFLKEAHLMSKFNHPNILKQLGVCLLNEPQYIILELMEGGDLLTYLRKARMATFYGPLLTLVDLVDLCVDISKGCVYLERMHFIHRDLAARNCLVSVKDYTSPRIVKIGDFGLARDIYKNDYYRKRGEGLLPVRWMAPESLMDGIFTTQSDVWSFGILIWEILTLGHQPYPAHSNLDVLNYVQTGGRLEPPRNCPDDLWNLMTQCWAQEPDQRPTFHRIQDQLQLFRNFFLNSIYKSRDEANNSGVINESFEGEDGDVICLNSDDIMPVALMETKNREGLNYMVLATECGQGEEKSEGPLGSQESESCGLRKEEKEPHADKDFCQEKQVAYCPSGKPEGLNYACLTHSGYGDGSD
Sequence of TRKA (G677C) (P04629 33-796 G667C limits assumed): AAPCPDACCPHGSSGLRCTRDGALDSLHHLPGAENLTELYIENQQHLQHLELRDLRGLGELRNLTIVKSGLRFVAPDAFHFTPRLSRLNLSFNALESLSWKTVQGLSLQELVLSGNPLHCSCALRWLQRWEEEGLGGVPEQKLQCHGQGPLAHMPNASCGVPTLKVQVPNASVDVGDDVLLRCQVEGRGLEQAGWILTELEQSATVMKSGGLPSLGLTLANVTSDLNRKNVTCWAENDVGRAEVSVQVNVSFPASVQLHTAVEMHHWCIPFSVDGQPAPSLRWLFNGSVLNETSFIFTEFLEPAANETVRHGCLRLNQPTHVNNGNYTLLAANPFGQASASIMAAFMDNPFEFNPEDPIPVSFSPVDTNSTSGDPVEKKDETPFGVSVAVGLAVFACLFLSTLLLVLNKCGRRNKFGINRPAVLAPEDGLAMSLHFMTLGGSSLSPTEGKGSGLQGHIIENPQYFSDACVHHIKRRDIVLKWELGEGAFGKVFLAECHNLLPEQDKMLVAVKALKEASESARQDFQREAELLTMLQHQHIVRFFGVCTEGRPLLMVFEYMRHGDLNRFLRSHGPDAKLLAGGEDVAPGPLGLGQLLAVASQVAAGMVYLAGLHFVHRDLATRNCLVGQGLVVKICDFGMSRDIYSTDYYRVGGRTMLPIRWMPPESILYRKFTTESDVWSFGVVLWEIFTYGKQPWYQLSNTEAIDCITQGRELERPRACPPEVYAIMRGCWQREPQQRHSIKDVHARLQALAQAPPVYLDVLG
Sequence of ALK (Q9UM73 19-1620): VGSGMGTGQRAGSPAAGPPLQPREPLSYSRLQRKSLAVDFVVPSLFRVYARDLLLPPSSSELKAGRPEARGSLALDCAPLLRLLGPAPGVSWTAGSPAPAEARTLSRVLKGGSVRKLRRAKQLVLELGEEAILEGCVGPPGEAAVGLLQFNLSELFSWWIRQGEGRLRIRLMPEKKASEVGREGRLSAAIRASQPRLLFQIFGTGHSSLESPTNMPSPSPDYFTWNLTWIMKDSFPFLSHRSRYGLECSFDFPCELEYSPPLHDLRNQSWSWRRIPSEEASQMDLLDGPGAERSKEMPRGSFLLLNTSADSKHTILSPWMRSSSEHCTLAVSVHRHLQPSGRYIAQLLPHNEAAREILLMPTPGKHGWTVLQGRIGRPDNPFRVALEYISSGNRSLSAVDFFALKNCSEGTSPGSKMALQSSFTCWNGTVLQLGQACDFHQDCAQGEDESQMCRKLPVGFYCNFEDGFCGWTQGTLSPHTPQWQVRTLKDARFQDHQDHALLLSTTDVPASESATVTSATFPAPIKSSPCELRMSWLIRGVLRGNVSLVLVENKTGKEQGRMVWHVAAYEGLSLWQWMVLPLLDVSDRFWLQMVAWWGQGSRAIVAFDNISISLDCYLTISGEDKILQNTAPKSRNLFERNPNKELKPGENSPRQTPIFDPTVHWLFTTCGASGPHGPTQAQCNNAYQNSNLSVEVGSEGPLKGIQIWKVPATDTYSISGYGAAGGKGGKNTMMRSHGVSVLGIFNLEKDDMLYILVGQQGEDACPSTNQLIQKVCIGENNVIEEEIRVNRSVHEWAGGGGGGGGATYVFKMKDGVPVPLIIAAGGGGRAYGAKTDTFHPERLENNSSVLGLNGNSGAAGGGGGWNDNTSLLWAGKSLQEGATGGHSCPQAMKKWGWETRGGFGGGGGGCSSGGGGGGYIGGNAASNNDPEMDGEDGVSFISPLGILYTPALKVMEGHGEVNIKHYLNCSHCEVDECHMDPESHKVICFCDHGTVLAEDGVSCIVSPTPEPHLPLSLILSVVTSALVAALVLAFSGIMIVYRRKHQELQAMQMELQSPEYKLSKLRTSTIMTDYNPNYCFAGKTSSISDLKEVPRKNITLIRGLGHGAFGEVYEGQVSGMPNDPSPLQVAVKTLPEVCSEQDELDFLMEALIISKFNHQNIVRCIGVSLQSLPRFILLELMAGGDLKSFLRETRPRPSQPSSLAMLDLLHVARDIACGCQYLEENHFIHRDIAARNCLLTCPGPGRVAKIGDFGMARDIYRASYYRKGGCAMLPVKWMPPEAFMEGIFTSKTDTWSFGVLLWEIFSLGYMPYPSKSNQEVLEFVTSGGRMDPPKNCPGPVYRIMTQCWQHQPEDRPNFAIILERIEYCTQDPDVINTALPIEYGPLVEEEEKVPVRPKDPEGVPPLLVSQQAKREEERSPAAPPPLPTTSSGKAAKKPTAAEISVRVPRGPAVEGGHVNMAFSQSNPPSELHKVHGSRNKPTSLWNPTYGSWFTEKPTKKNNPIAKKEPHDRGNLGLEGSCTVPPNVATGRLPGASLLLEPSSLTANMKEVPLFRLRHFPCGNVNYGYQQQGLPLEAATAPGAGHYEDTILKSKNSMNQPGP
Sequence of ROS1 (G2032R) (P08922 28-2347 G2032R): as the sequence (P08922 28-2347) above, with G2005R counted along it
Sequence of ALK (G1202R) (Q9UM73 19-1620 G1202R): as the sequence (Q9UM73 19-1620) above, with G1184R counted along it
Sequence of TRKA (P04629 33-796): as the sequence (P04629 33-796 G667C limits assumed) above, with C635G counted along it

Turning to `C[C@@H](Nc1ccn2ncc(C3=NOCC(C)(C)N3)c2n1)c1cc(F)cc(F)c1F` [Example 4], the IC50 was 5 to 50 nM against ALK (G1202R); 0.5 to 5 nM against ALK; 0.5 to 5 nM on TRKA (G677C) (setting [2]); less than 0.5 nM against ROS1; 0.5 to 5 nM against ROS1 (G2032R); less than 0.5 nM against TRKA. Further, the “Tumor Volume” value in experiment [1] (0 days) worked out at 167.31 mm^3; in experiment [1] (4 days), 216.42 mm^3; in experiment [1] (7 days), 292.24 mm^3; in [1] (11 days), 375.67 mm^3; in experiment [1] (14 days) it was 688.91 mm^3.

In the case of `C[C@@H](Nc1ccn2ncc(C3=NC(=O)C(C)(C)N3)c2n1)c1cc(F)ccc1OC(F)F` [Example 6], the IC50 on ALK (G1202R) was 5 to 50 nM; with Ba/F3-TEL-ALK-G1202R, 110 nM; against ALK, 0.5 to 5 nM; at TRKA (G677C) (setting [2]), less than 0.5 nM; at ROS1, less than 0.5 nM; against ROS1 (G2032R) it was less than 0.5 nM. In addition, the IC50 in the experiment on Ba/F3-CD74-ROS1-G2032R is 24.1 nM; against TRKA, less than 0.5 nM; in the experiment on Ba/F3-LMNA-NTRK1-G595R, 13.4 nM.

For the compound `COc1ccc(F)cc1[C@@H](C)Nc1ccn2ncc(C3=NC(=O)C(C)(C)N3)c2n1` [Example 7], the IC50 at ALK (G1202R) was 5 to 50 nM; at ALK, 0.5 to 5 nM; on TRKA (G677C) (setting [2]) it was less than 0.5 nM; on ROS1 it was less than 0.5 nM; against ROS1 (G2032R), less than 0.5 nM; in the experiment with Ba/F3-CD74-ROS1-G2032R it was 54.6 nM. For the same compound, the IC50 is less than 0.5 nM on TRKA and 36.1 nM in the experiment with Ba/F3-LMNA-NTRK1-G595R.

Regarding `C[C@@H](Nc1ccn2ncc(C3=NOCCN3)c2n1)c1cc(F)ccc1OC(F)F` [Example 9], the IC50 at ALK (G1202R) was 5 to 50 nM; in the experiment on Ba/F3-TEL-ALK-G1202R, 75.6 nM; on ALK, 0.5 to 5 nM; at TRKA (G677C) (setting [2]), less than 0.5 nM; against ROS1, less than 0.5 nM; against ROS1 (G2032R), less than 0.5 nM. In addition, the figures for the IC50 in the experiment with Ba/F3-CD74-ROS1-G2032R, at TRKA and with Ba/F3-LMNA-NTRK1-G595R were 31.6 nM, less than 0.5 nM and 6.1 nM, respectively.

Regarding `C[C@@H](Nc1ccn2ncc(C3=NOCCN3)c2n1)c1cc(F)ccc1OC(F)(F)F` [Example 26], the IC50 against ALK (G1202R) was 5 to 50 nM; in the experiment on Ba/F3-TEL-ALK-G1202R, 100 nM; against ALK, 0.5 to 5 nM; against TRKA (G677C), 0.5 to 5 nM; against ROS1, less than 0.5 nM; against ROS1 (G2032R) it was 0.5 to 5 nM. The IC50 is 35.2 nM in the experiment on Ba/F3-CD74-ROS1-G2032R, less than 0.5 nM on TRKA and 11.2 nM in the experiment with Ba/F3-LMNA-NTRK1-G595R.
